Literature values in patent US20110136741A1 (priority 2008, published 2011).

Tests used:
subtype sst2 receptors = subtype sst2 receptors (Homo sapiens, UniProt P30874)
hsst2 = hsst2 (Homo sapiens, UniProt P30874)
Chain of hsst2 (P30874 whole entry): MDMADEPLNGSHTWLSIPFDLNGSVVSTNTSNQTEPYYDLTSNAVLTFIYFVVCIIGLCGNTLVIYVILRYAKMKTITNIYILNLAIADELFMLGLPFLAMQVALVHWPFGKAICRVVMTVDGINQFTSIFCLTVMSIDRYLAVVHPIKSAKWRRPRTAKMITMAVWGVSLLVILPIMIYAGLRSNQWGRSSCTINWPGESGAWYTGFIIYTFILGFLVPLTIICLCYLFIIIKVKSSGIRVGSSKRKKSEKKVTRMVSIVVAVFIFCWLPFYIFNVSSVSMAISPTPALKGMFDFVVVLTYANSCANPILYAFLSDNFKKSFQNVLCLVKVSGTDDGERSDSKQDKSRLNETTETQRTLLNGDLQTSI

Chain of subtype sst2 receptors (P30874 whole entry): as above

For `C[C@@H](O)[C@@H]1NC(=O)[C@H](CCCCN)NC(=O)[C@@H](Cc2c[nH]c3ccccc23)NC(=O)[C@H](Cc2ccccc2)NC(=O)[C@@H](NC(=O)[C@H](N)Cc2ccccc2)CSSC[C@@H](C(=O)N[C@H](CO)[C@@H](C)O)NC1=O` [octreotide], the “affinity for subtype sst2 receptors” value (subtype sst2 receptors) is listed as “very high affinity” and the “activity towards hsst2 receptor” value (hsst2) is listed as “very active”.

For `CC(O)[C@@H]1NC(=O)[C@H](CCCCN)NC(=O)[C@H](Cc2c[nH]c3ccccc23)NC(=O)[C@H](Cc2ccccc2)NC(=O)[C@H](Cc2ccccc2)NC(=O)[C@H](CC(N)=O)NC(=O)[C@H](CCCCN)NC(=O)[C@@H](NC(=O)CNC(=O)[C@H](C)N)CSSC[C@@H](C(=O)O)NC(=O)[C@H](CO)NC(=O)[C@H]([C@@H](C)O)NC(=O)[C@H](Cc2ccccc2)NC1=O` (stereo partly drawn) [somatostatin, Somatostatin-14], the half-life in blood is given as < 3 min.
